Source: US20260027087A1, “DOSING REGIMENS COMPRISING A KAT6 INHIBITOR FOR THE TREATMENT OF CANCER” (PFIZER INC., priority 2022, published 2026)
Where “and” joins values, the source holds several entries; their conditions need not be identical. Equal values may be shown once.

System: locally advanced or metastatic selected solid tumors (ER+HER2− breast cancer, CRPC, or NSCLC)
Test: Phase 1 clinical trial: clinical efficacy (tumor response)
Assay type: in vivo, human
Conditions: for confirmed and durable partial responses (PR): ER+/HER2− breast cancer; for confirmed and durable partial responses, response-evaluable pts with ER+/HER2− mBC: progressed on prior ET+CDK4/6 inhibitor
Description: The patients in this trial are intolerant of or resistant to standard therapy.
Study Design: The overall study design is depicted in FIG. 1. The study contains two parts, a dose escalation (Part 1) followed by a dose expansion (Part 2). Not shown in FIG. 1 are Part 1D and Part 2D, which are additional arms in Part 1 and Part 2 in the study design and are described below.
Part 1A (Monotherapy Dose Escalation) contains dose escalation as monotherapy in patients with locally advanced or metastatic ER+HER2− breast cancer, CRPC, or NSCLC that is resistant or intolerant to standard therapy or for whom no standard therapy is available, to determine the maximum tolerated dose (MTD) and select the RDE. […] A 2-parameter Bayesian Logistic Regression Model (BLRM) was used for dose finding.
Part 1B (Combination Dose Escalation), COMPOUND A in combination with fulvestrant was evaluated for dose finding in patients with locally advanced or metastatic ER+HER2− breast cancer (2L+) who progressed after at least one line of treatment with an endocrine therapy and a CDK4/6 inhibitor to determine the MTD and RDE for this combination. Combination RDE may be different from monotherapy RDE due to potential toxicity overlap. A 5-parameter BLRM was used for dose finding.

[1] = Parts 1A + 1B, of the 10 with SD

With `COc1ccccc1S(=O)(=O)Nc1noc2cc(Cn3cccn3)cc(OC)c12` [COMPOUND A, 2-Methoxy-N-{4-methoxy-6-[(1H-pyrazol-1-yl)methyl]-1,2-benzoxazol-3-yl}benzene-1-sulfonamide] the “Duration of response (DOR)” value (1 patient in Part 1A) was 19.4 months, the “Duration of response (DOR)” value (2 patients in Part 1B (one value per patient)) was 8.1 months and 10 months and the clinical efficacy (31 participants treated, cut-off 23 Mar. 2022) was “early signs of clinical efficacy”. For the same molecule, the “confirmed and durable partial responses (PR)” value (Part 1A (8 mg monotherapy)) was 1 patients, the “confirmed and durable partial responses, response-evaluable pts with ER+/HER2− mBC” value (Part 1A (monotherapy)) was “⅛” and the “confirmed and durable partial responses, response-evaluable pts with ER+/HER2− mBC” value (Part 1B (5 mg QD + fulvestrant)) was 2/4. For the same molecule, the “confirmed and durable partial responses (PR)” value (Part 1B (5 mg QD/fulvestrant 500 mg)) was 2 patients, the “Stable disease (SD), patients with CRPC” value [1] was 4 and the “Stable disease (SD), patients with ER+/HER2− breast cancer” value [1] was 5. For the same molecule, the “Stable disease (SD), patients with NSCLC” value [1] was 1, the “confirmed and durable partial responses (PR)” value (among response-evaluable patients (n=22)) was 3 patients and the “clinical responses in heavily treated patients with ER+HER2− breast cancer” value (as of 30 Sep. 2022) was “confirmed and durable clinical responses were observed”. For the same molecule, the “patients with SD lasting ≥6 months” value (as of 30 Sep. 2022) was “Three”, the “efficacy in ER+HER2− breast cancer patients” value (during dose escalation, as of 23 Mar. 2022) was “signs of efficacy” and the “duration of SD” value (patient with CRPC, 5 mg QD) was 9.1 months. The “duration of SD” value (patient with CRPC, 15 mg QD) was 11.3 months and the “duration of SD” value (patient with ER+/HER2− breast cancer, 8 mg QD) was 7.5 months.
